Experimental data taken from patent US5180742A, “Quinone derivatives, their production and use” (Takeda Chemical Industries, Ltd., priority 1984, dated 1993).

Key:
[1] = test system: lipid peroxides production in rat brain homogenates; assay: Inhibitory action on lipid peroxides production in rat brain homogenates (thiobarbituric acid method); assay type: biochemical, rat (SD); conditions: n = 4-6
Experimental: Inhibitory Action on Lipid Peroxides Production in Rat Brain Homogenates
The male SD rat brain tissue was used as 5% homogenate in phosphate-buffered solution. After incubation of the homogenate for 1 hour at 37° C., the amount of lipid peroxides produced was determined by the thiobarbituric acid method according to the description of Ohkawa et al. (Analytical Biochemistry, 95: 551, 1979)
Test compounds were used as a solution of dimethylsulfoxide. The inhibitory action on lipid peroxide production was expressed as a % inhibition as compared with the amount of production in the vehicle group. Results

[2] = test system: Fe^3+ -NTA-induced injury of rat kidney; assay: Inhibitory effect on Fe3+-NTA-induced injury of rat kidney; assay type: in vivo, Wistar rats; conditions: 20 mg/kg oral once a day; for body weight gain: control 9.8 ± 5.4, normal 68.3 ± 2.3; for Urinary volume: control 20, normal 6.8; for Urinary protein: control 25.1, normal 5.1
Experimental: Ferric Nitrilotriacetate (Fe^3+ -NTA)-Induced Injury of Rat Kidney
Male Wistar rats of 4 weeks old weighing about 80 g were used. Injury of kidney was induced by the method of Awai et al. [Amer. J. Pathol., 95, 663-674 (1979)]. The mixture of ferric nitrate and NTA as a ratio of 1:4 was intraperitoneally given: iron of 5 mg/kg for 3 days followed 10 mg/kg for 9 days. Twelve days later, the animals were killed. Body weight gain, urinary volume, urinary protein and wet and dry weights of kidney were measured. Drugs were suspended in a 5% gum arabic solution and given orally once a day in a dose of 20 mg/kg.

[3] = test system: PAF-induced bronchoconstriction; assay: Effect on PAF-induced bronchoconstriction in guinea pigs; assay type: in vivo; conditions: one hour before PAF
Experimental: Platelet Activating Factor (PAF)-Induced Bronchoconstriction in Guinea Pigs
Experimental procedure in this experiment was the same as that in LTD4 -induced bronchoconstriction shown in Experimental example 7. PAF is an intraveneous dose of 1 μg/kg was used. Each specimen suspended in a 5% gum arabic solution was given orally one hour before the PAF administration.

[4] = target: T1, 5-Lipoxygenase (Rattus norvegicus, UniProt P12527); assay: 5-Lipoxygenase inhibitory activity: 5-HETE production in RBL-1 cells (HPLC); assay type: cell-based, rat (RBL-1, rat basophilic leukemia cells); conditions: arachidonic acid + A 23187, 37° C., 20 minutes, read-out: 5-HETE production inhibiting effect (IC50)
T1 construct: endogenous in cells; host or cells: RBL-1 (rat basophilic leukemia cells)
T1 sequence (P12527 1-673): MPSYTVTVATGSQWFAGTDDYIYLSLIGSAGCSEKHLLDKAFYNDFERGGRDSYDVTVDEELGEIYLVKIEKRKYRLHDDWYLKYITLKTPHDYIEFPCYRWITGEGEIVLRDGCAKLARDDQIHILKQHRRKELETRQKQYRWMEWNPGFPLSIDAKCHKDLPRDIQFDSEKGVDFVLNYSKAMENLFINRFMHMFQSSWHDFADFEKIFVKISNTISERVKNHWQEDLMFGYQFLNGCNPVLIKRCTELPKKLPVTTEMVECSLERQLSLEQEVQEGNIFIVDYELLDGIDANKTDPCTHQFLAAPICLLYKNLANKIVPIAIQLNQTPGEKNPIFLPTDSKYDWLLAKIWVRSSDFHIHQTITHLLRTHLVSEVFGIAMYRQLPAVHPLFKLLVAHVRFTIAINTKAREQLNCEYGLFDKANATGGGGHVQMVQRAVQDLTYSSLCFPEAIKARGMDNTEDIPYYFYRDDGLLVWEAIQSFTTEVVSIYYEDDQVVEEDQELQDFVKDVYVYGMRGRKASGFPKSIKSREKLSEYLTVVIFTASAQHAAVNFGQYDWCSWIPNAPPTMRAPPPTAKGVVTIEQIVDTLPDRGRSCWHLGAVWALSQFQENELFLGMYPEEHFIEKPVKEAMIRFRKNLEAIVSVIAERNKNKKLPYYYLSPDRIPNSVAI
Experimental: 5-Lipoxygenase Inhibitory Activity
10^7 RBL-1 cells (rat basophilic leukemia cells) were suspended in 0.5 ml of MCM (mast cell medium), and test solutions (made up of 0.5 ml of MCM, 50 μg of arachidonic acid, 10 μg of A 23187 (calcium ionophore, Eli Lilly) and 1 μM, 0.1 μM, 0.01 μM and0.001 μM as the final concentration of the quinone compound, respectively) prepared previously were added respectively to the suspension, followed by reaction at 37° C. for 20 minutes. After the conclusion of the reaction, 4 ml of ethanol and 1,4-dimethoxy-2-methyl-3-(3-methoxypropyl)naphthalene as the internal reference drug were added to the reaction solution, and the mixture was shaken thoroughly and allowed to stand at room temperature for 10 minutes. Then, it was centrifuged (2000 r.p.m.) for 10 minutes, and the supernatant fluid was separated and concentrated to dryness under reduced pressure. 0.5 Milliliter of 60% aqueous methanol was added to the concentrate, and 100 μl of the resulting solution was taken and subjected to high-performance liquid chromatography to determine amount of 5-HETE (5-hydroxyeicosatetraenoic acid). Determination of 5-HETE was made through measurement of an absorption at 237 nm with a UV absorption monitor.
The 5-HETE production inhibitory effect (IE) was expressed by [formula] wherein a is a peak height or peak area corrected by the peak for the internal reference when the quinone compound is not contained; b is a peak height or peak area corrected by the peak for the internal reference when the quinone compound is contained.

[5] = test system: PMA-stimulated release of O2^- in guinea pig peritoneal polymorphonuclear leukocytes; assay: PMA-stimulated release of O2- in guinea pig peritoneal polymorphonuclear leukocytes (chemiluminescence); assay type: cell-based
Experimental: Luminol (3-aminophthaloylhydrazine), 10 nmole, and phorbol myristate acetate (PMA), 10 ng, were added to guinea pig peritoneal polymorphonuclear leukocytes (1.5×10^4 cells) suspended in Hanks' balanced salt solution-HEPES buffer (pH 7.4). A total volume of the reaction mixture was 0.1 ml. The chemiluminescence resulted from release of superoxide (O2^-) during 30 sec was measured continuously for 10 min at 37° C. using a chemiluminometer analyzer (Packard Pico-Lite). A peak value of the chemiluminescence was compared as an index of the release of O2^-, and the chemiluminecence inhibitable by superoxide dismutase (300 μg/ml) was measured as 100%. Compound No. 50 was added immediately before the addition of PMA.

[6] = test system: mice of ICR breed; assay type: in vivo; conditions: 1000 mg/kg oral, male ICR mice, 7 days
Text: Acute Toxicity Test in Mice (Acute Toxicity)
1000 Milligrams per kilogram of each set specimen was applied orally to groups of 5 five-weeks old male mice of ICR breed, and a number of dead animals observed for the 7-days period was counted.

| SMILES | Inhibition of lipid peroxides production ([1]; 10^-5 M) [%] | Inhibition of lipid peroxides production ([1]; 10^-6 M) [%] | Inhibition of lipid peroxides production ([1]; 10^-7 M) [%] | Urinary protein (% inhibition) [2] [%] | Urinary volume (% Inhibition) [2] [%] | Water content in kidney (% Inhibition) [2] [%] | body weight gain [2] [g] | Urinary volume [2] [mL/day] | Urinary protein [2] [mg/day] | % Inhibition of PAF-induced bronchoconstriction ([3]; 0.313 mg/kg oral) [%] | % Inhibition of PAF-induced bronchoconstriction ([3]; 1.25 mg/kg oral) [%] | % Inhibition of PAF-induced bronchoconstriction ([3]; 5 mg/kg oral) [%] | IC50 [4] [nM] | suppression of the release of O2- (in words) ([5]; 0.001-0.1 mM) | inhibition at 1 µM ([5]; Cavia porcellus, Leukocyte, 0.001 mM) [%] | inhibition at 10 µM ([5]; Cavia porcellus, Leukocyte, 0.01 mM) [%] | inhibition at 100 µM ([5]; Cavia porcellus, Leukocyte, 0.1 mM) [%] | % Inhibition of PAF-induced bronchoconstriction ([3]; 0.08 mg/kg oral) [%] | Acute toxicity (number of dead animals/number of animals used) [6] |
| --- | --- | --- | --- | --- | --- | --- | --- | --- | --- | --- | --- | --- | --- | --- | --- | --- | --- | --- | --- |
| CC1=C(C)C(=O)C(C(CCCCCC(=O)O)c2ccccc2)=C(C)C1=O (stereo not shown) [Compound No. 50, 7-(3,5,6-trimethyl-1,4-benzoquinon-2-yl)-7-phenylheptanoic acid] | 100 ± 0 | 66.6 ± 12.4 | 16.7 ± 3.2 | 88 | 88 | 81 | 39.3 ± 7.4 | 8.4 | 7.5 | 66 | 94 | 85 | 28 | suppressed the release of O2^- in a concentration-dependent manner | 12 | 56 | 93 |  |  |
| CC1=C(C)C(=O)C(C(CCCCCC(=O)O)c2ccc(C)cc2)=C(C)C1=O (stereo not shown) [Compound No. 93] |  |  |  | 10 | 47 | 7 | 26.2 ± 4.9 | 13.6 | 23.1 | 87 | 70 |  | 90 |  |  |  |  | 58 | 0/5 |
